Data published in ChEMBL document CHEMBL5136999, “Contemporary Medicinal Chemistry Strategies for the Discovery and Development of Novel HIV-1 Non-nucleoside Reverse Transcriptase Inhibitors” (J Med Chem, 2022).

Assays:
[1] = system: Human immunodeficiency virus 1; test: Antiviral activity against wild type HIV-1 IIIB infected in human MT2 cells assessed as protection against virus-induced cytopathicity by MTT assay; format: functional, organism-based; conditions: Human immunodeficiency virus 1, IIIB
[2] = system: Human immunodeficiency virus 1; test: Antiviral activity against HIV-1 harboring K101P mutant infected in human MT2 cells assessed as protection against virus-induced cytopathicity by MTT assay; format: functional, organism-based; conditions: Human immunodeficiency virus 1, MT2
[3] = system: Human immunodeficiency virus 1; test: Antiviral activity against HIV-1 harboring Y181C mutant infected in human MT2 cells assessed as protection against virus-induced cytopathicity by MTT assay; format: functional, organism-based; conditions: Human immunodeficiency virus 1, MT2
[4] = system: Human immunodeficiency virus 1; test: Antiviral activity against HIV-1 harboring K103N/Y181C mutant infected in human MT2 cells assessed as protection against virus-induced cytopathicity by MTT assay; format: functional, organism-based; conditions: Human immunodeficiency virus 1, MT2
[5] = Cytotoxicity against human MT2 cells assessed as cell viability; format: toxicity, cell-based
[6] = system: Human immunodeficiency virus 1; test: Antiviral activity against HIV-1 harboring K103N/Y181C mutant infected in human MT2 cells assessed as protection against virus-induced cytopathicity; format: functional, organism-based; conditions: Human immunodeficiency virus 1, MT2
[7] = system: Human immunodeficiency virus 1; test: Antiviral activity against wild type HIV-1 IIIB infected in human MT2 cells assessed as protection against virus-induced cytopathicity; format: functional, organism-based; conditions: Human immunodeficiency virus 1, IIIB
[8] = system: Human immunodeficiency virus 1; test: Antiviral activity against HIV-1 harboring E138K mutant infected in human MT4 cells assessed as protection against virus-induced cytopathicity by MTT assay; format: functional, organism-based; conditions: Human immunodeficiency virus 1, MT4
[9] = system: Human immunodeficiency virus 1; test: Antiviral activity against wild type HIV-1 IIIB infected in human MT4 cells assessed as protection against virus-induced cytopathicity by MTT assay; format: functional, organism-based; conditions: Human immunodeficiency virus 1, IIIB
[10] = Oral bioavailability in Sprague-Dawley rat at 5 mg/kg measured up to 24 hrs by LC-MS analysis; format: ADME, organism-based; conditions: in vivo
[11] = Metabolic stability in rat liver microsomes assessed as clearance; format: ADME, Microsome; conditions: read-out: CLH
[12] = Metabolic stability in human liver microsomes assessed as clearance; format: ADME, Microsome; conditions: read-out: CLH
[13] = system: Human immunodeficiency virus 1; test: Antiviral activity against HIV-1 harboring K103N mutant infected in human MT4 cells assessed as protection against virus-induced cytopathicity by MTT assay; format: functional, organism-based; conditions: Human immunodeficiency virus 1, MT4
[14] = Cytotoxicity against human MT4 cells assessed as cell viability by MTT assay; format: toxicity, cell-based
HOS = test: Cytotoxicity against human HOS cells assessed as reduction in cell viability measured after 48 hrs; format: functional

N#Cc1cc2c(Oc3ccccc3OCCn3ccc(=O)[nH]c3=O)cccn2c1
EC50 [1]: 380 nM
EC50 [2]: 1 nM
EC50 [3]: 310 nM
EC50 [4]: 11 nM

Cc1c(Oc2ccccc2OCCn2ccc(=O)[nH]c2=O)cc(Cl)c2ccc(C#N)cc12
CC50 [5]: > 100000 nM
EC50 [6]: 280 nM
EC50 [7]: 6.2 nM

Cc1c(Oc2ccccc2OCCn2ccc(=O)[nH]c2=O)cc(N(C)C(=O)CCl)c2ccc(C#N)cc12
EC50 [6]: 570 nM
EC50 [7]: 580 nM

C=CC(=O)N(C)c1cc(Oc2ccccc2OCCn2ccc(=O)[nH]c2=O)c(C)c2cc(C#N)ccc12
EC50 [6]: 500 nM
EC50 [7]: 560 nM

Cc1cc(/C=C/C#N)cc([N+](=O)[O-])c1Nc1nc(Nc2ccc(C#N)cc2)nc2ccccc12
EC50 [8]: 4.3 nM
EC50 [9]: 3.4 nM
bioavailability [10]: 16.5%
microsomal CLint [11]: 33.2 µL/min/mg
microsomal CLint [12]: 34.5 µL/min/mg
EC50 [13]: 3.6 nM
CC50 [14]: 6140 nM

Cc1cc(/C=C/C#N)cc(C)c1-n1cnc2cnc(Nc3ccc(C#N)cc3)nc21
CC50 (HOS): 42000 nM

Cc1cc(/C=C/C#N)cc([N+](=O)[O-])c1Nc1nc(Nc2ccc(C#N)cc2)nc2ccc(Cl)cc12
EC50 [8]: 17.7 nM
EC50 [9]: 10.6 nM
bioavailability [10]: 15.5%
microsomal CLint [11]: 30.6 µL/min/mg
microsomal CLint [12]: 14.4 µL/min/mg
EC50 [13]: 10.2 nM
CC50 [14]: 3950 nM

Cc1cc(/C=C/C#N)cc(C)c1Nc1ncc2ncn(-c3ccc(C#N)cc3)c2n1
CC50 (HOS): 21000 nM

O=C1Nc2ccc(Cl)cc2[C@@](C#CC2CC2)(C(F)(F)F)O1 [EFAVIRENZ]
EC50 [9]: 3.2 nM
EC50 [13]: 147 nM
CC50 [14]: > 40200 nM

Cc1cc(C#N)cc(C)c1Oc1nc(Nc2ccc(C#N)cc2)nc(N)c1Br [ETRAVIRINE]
EC50 [8]: 10.9 nM
EC50 [13]: 3.5 nM
CC50 [14]: > 4620 nM

Cc1ccnc2c1NC(=O)c1cccnc1N2C1CC1 [NEVIRAPINE]
EC50 [3]: > 100000 nM
EC50 [4]: > 100000 nM

Cc1cc(/C=C/C#N)cc(C)c1Nc1ccnc(Nc2ccc(C#N)cc2)n1 [RILPIVIRINE]
CC50 (HOS): 10000 nM
